In US7858621B2 (Amorepacific Corporation, priority 2006, dated 2010):
Where two headings read alike, the source gives them in different places.

Columns and labels:
[1] = biological target: T1, vanilloid receptor (Rattus norvegicus, UniProt O35433); experiment: 45Ca influx test in cultured neonatal rat DRG neurons, inhibition of capsaicin response; type: cell-based
T1 construct: DRG nerve cells from the primary culture of 2 days were equilibrated; endogenous in cells; host or cells: primary culture of dorsal root ganglion neurons from neonatal SD rats
How it was run: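 Neonatal SD rat DRG neurons, cultured 2 days with NGF (200 ng/ml) and Ara-C, were washed in HEPES (10 mM, pH 7.4)-buffered Ca/Mg-free HBSS. Test compound was added with capsaicin (final 0.5 μM) and 45Ca (10 μCi/ml) for 10 min at room temperature; 45Ca uptake counted by scintillation after SDS elution.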

[2] = Metabolic stability test in rat liver microsomes; type: in vitro ADME; conditions: 5 μg/mL, 0.5 mg/mL protein, 30 min incubation
Method: (§1) 1) Metabolic Stability Test
(§2) Diluted sample (final 5 μg/mL in 0.1 M potassium phosphate buffer, pH 7.4) was pre-incubated with cofactors (glucose-6-phosphate 3.3 mM, NADPH 1.3 mM, MgCl2 0.16 mM, glucose-6-phosphate dehydrogenase 0.4 U/mL final) and enzyme reaction was initiated with the addition of human intestinal (1 mg/mL protein) or rat liver microsomes (0.5 mg/mL protein). Reaction was terminated with 2× volume of cold acetonitrile after 1 min (initial point) or 30 min (reacted sample) incubation. In case of human intestinal microsomes, 2 hr reaction time was employed. Reaction mixture was undergone extraction in shaking bath over 20 min, after which resultant supernatant was separated by centrifugation. Area of parent compound peak was analyzed in the supernatant using HPLC-UV method and the extent of metabolism was shown as the decreased compound peak area (%) from initial point.

[3] = Metabolic stability test in human intestinal microsomes; type: in vitro ADME; conditions: 5 μg/mL, 1 mg/mL protein, 2 hr reaction time
Method: as §1, §2

[4] = PK study in rats, single oral administration; type: in vivo; parameters: AUC: concentration or dose not given beside the values; conditions: rat, plasma
Method: Pharmacokinetics of compounds in rats were analyzed using the following experiment. Rats were fasted overnight prior to administration and until approximately 4 hours after administration. Rats were given a single oral administration of compound at same dose. Administration volume was 10 ml/kg. Blood samples were collected from the retro-orbital sinus at various times over the following 7 hrs. Immediately after each collection, plasmas were separated from blood cells by centrifugation and stored at −20° C. until the analysis was performed. The plasma samples were analyzed using a reverse phase high-performance chromatography (HPLC) method.

[5] = neonatal rat DRG neurons, capsaicin 0.5 μM, 45Ca influx, read-out: Antagonist Calcium Uptake Test (IC50)

T1 sequence (O35433 whole entry): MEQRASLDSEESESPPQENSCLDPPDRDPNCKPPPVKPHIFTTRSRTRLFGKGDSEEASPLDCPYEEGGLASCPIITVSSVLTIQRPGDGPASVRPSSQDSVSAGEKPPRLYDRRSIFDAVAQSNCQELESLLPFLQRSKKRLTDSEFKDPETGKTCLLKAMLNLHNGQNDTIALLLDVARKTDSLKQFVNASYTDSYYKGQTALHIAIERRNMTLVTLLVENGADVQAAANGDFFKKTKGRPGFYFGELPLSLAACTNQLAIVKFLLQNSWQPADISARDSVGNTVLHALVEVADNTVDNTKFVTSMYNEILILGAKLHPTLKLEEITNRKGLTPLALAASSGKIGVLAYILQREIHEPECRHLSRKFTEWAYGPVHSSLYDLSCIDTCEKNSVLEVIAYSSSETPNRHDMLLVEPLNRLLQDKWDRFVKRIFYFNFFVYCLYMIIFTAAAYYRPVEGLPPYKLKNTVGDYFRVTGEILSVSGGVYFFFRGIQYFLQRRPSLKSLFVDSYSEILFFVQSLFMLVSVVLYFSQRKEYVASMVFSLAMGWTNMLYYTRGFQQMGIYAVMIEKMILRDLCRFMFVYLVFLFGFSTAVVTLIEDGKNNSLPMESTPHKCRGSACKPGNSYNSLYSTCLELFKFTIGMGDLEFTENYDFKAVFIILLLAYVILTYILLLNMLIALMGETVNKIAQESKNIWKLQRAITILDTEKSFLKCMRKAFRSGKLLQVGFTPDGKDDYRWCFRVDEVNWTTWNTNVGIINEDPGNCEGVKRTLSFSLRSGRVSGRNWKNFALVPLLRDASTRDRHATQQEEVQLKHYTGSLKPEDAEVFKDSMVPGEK

With `C#Cc1cc(CNC(=O)/C=C/c2ccc(C(F)(F)F)nc2N2CCOCC2)cc(F)c1NS(C)(=O)=O` [Example 12, N-(3-Ethynyl-5-fluoro-4-methanesulfonylamino-benzyl)-3-(2-morpholin-4-yl-6-trifluoromethyl-pyridin-3-yl)-acrylamide] the IC50 [1, 5] was 260 nM, the “Stability RLM (% metabolized in rat liver microsomes)” value [2] was 11.7% and the “Stability HIM (% metabolized in human intestinal microsomes)” value [3] was 12.0%. It also gave an AUC [4] of 3240 ng·h/mL, a Cmax [4] of 723 ng/mL and a Tmax [4] of 2.38 h. The half-life [4] was 102 min.

For `COCCNc1nc(C(F)(F)F)ccc1/C=C/C(=O)NCc1ccc(NS(C)(=O)=O)c(F)c1` [Example 45, N-(3-Fluoro-4-methanesulfonylamino-benzyl)-3-[2-(2-methoxy-ethylamino)-6-trifluoromethyl-pyridin-3-yl]-acrylamide], the IC50 [1, 5] was 510 nM, the “Stability RLM (% metabolized in rat liver microsomes)” value [2] was 10% and the “Stability HIM (% metabolized in human intestinal microsomes)” value [3] was 8.0%.

For `C#Cc1cc(CNC(=O)/C=C/c2ccc(C(F)(F)F)nc2NCCOC)cc(F)c1NS(C)(=O)=O` [Example 65, N-(3-Ethynyl-5-fluoro-4-methanesulfonylamino-benzyl)-3-[2-(2-methoxy-ethylamino)-6-trifluoromethyl-pyridin-3-yl]-acrylamide], the IC50 [1, 5] was 89 nM, the “Stability RLM (% metabolized in rat liver microsomes)” value [2] was 15.3% and the “Stability HIM (% metabolized in human intestinal microsomes)” value [3] was 14.0%.

In the case of `C#Cc1cc(CNC(=O)/C=C/c2ccc(C(F)(F)F)nc2OCCOC)cc(F)c1NS(C)(=O)=O` [Example 75, N-(3-Ethynyl-5-fluoro-4-methanesulfonylamino-benzyl)-3-[2-(2-methoxy-ethoxy)-6-trifluoromethyl-pyridin-3-yl]-acrylamide], the IC50 [1, 5] is reported as 370 nM, the “Stability RLM (% metabolized in rat liver microsomes)” value [2] is reported as 17.0% and the “Stability HIM (% metabolized in human intestinal microsomes)” value [3] is reported as 17.0%.

In the case of `C#Cc1cc(CNC(=O)/C=C/c2ccc(C(F)(F)F)nc2NC(C)C)cc(F)c1NS(C)(=O)=O` [Example 100, N-(3-Ethynyl-5-fluoro-4-methanesulfonylamino-benzyl)-3-(2-isopropylamino-6-trifluoromethyl-pyridin-3-yl)-acrylamide], the IC50 [1, 5] is reported as 69 nM, the “Stability RLM (% metabolized in rat liver microsomes)” value [2] is reported as 3.4% and the “Stability HIM (% metabolized in human intestinal microsomes)” value [3] is reported as 0%. For the same compound, the AUC [4] was 17400 ng·h/mL, the Cmax [4] was 2530 ng/mL and the Tmax [4] was 3 h. It also gave a half-life [4] of 193 min.

For `CCCCNc1nc(C(F)(F)F)ccc1/C=C/C(=O)NCc1cc(C)c(NS(C)(=O)=O)c(F)c1` [Example 188, N-(3-Fluoro-4-methanesulfonylamino-5-methyl-benzyl)-3-(2-butylamino-6-trifluoromethyl-pyridin-3-yl)-acrylamide], the IC50 [1, 5] was 87 nM, the “Stability RLM (% metabolized in rat liver microsomes)” value [2] was 2.7% and the “Stability HIM (% metabolized in human intestinal microsomes)” value [3] was 1.6%.

With `CCCNc1nc(C(F)(F)F)ccc1/C=C/C(=O)NCc1cc(F)c(NS(C)(=O)=O)c(F)c1` [Example 222, N-(3,5-Difluoro-4-methanesulfonylamino-benzyl)-3-(2-propylamino-6-trifluoromethyl-pyridin-3-yl)-acrylamide] the IC50 [1, 5] was 49 nM, the “Stability RLM (% metabolized in rat liver microsomes)” value [2] was 0% and the “Stability HIM (% metabolized in human intestinal microsomes)” value [3] was 0%.

With `CCCc1nc(C(F)(F)F)ccc1/C=C/C(=O)NCc1ccc(NS(C)(=O)=O)c(Cl)c1` [Example 253, N-(3-Chloro-4-methanesulfonylamino-benzyl)-3-(2-propyl-6-trifluoromethyl)-pyridin-3-yl-acrylamide] the IC50 [1, 5] was 500 nM, the “Stability RLM (% metabolized in rat liver microsomes)” value [2] was 0% and the “Stability HIM (% metabolized in human intestinal microsomes)” value [3] was 3.2%.

In the case of `C=Cc1cc(CNC(=O)/C=C/c2ccc(C(F)(F)F)nc2N2CCOCC2)cc(F)c1NS(C)(=O)=O` [Example 281, N-(3-Ethenyl-5-fluoro-4-methanesulfonylamino-benzyl)-3-(2-morpholin-1-yl-6-trifluoromethyl-pyridin-3-yl)-acrylamide], the IC50 [1, 5] is reported as 220 nM, the “Stability RLM (% metabolized in rat liver microsomes)” value [2] is reported as 0.5% and the “Stability HIM (% metabolized in human intestinal microsomes)” value [3] is reported as 0%. The AUC [4] was 654 ng·h/mL, the Cmax [4] was 215 ng/mL and the Tmax [4] was 2 h. For the same compound, the half-life [4] was 75.7 min.

In the case of `C#Cc1cc(CNC(=O)/C=C/c2ccc(C(C)(C)C)cc2N2CCOCC2)cc(F)c1NS(C)(=O)=O` [drawing 334, reference compound], the IC50 ([1]; Table 2, unit inferred, read-out: IC50) is reported as 860 nM, the “Stability RLM (% metabolized in rat liver microsomes)” value [2] is reported as 12.8% and the “Stability HIM (% metabolized in human intestinal microsomes)” value [3] is reported as 54.0%.
